According to US10286033B2, “Methods and compositions comprising desmopressin in combination with an alpha-adrenergic receptor antagonist” (Serenity Pharmaceuticals, LLC, priority 2014, dated 2019):
Marks after values point to notes of the source that are not given here.

Key:
[1] = Clinical study of desmopressin nasal spray on the occurrence of nocturnal voiding (Responder / Non-Responder); format: in vivo, human
Experimental: A clinical study was performed to evaluate the impact of administering desmopressin in combination with an alpha-adrenergic receptor antagonist alone or together with a 5-alpha reductase inhibitor to reduce the occurrence of nocturnal voiding by a patient. Experimental procedures and results are described below. […] Patients received as a nasal spray either (i) a 1.5 μg dosage of desmopressin or (ii) placebo. The desmopressin nasal spray (or placebo) was administered daily just prior to bedtime for a duration of twelve weeks. In addition, patients previously diagnosed as suffering from benign prostatic hyperplasia (BPH) and receiving an alpha-adrenergic receptor antagonist alone or together a 5-alpha reductase inhibitor for treatment of BPH continued to receive the alpha-adrenergic receptor antagonist alone or together the 5-alpha reductase inhibitor at the same dosage and frequency used prior to enrollment in this study. All patients in this study who received an alpha-adrenergic receptor antagonist alone or together a 5-alpha reductase inhibitor for treatment of their BPH had been receiving the alpha-adrenergic receptor antagonist alone or together the 5-alpha reductase inhibitor for at least 2 months before enrollment in this study and experienced on average at least two nocturnal voids per night before enrollment in this study. The desmopressin nasal spray was prepared by combining aliquots of an Emulsion Stock Solution and a Buffer Solution as described below. To produce an emulsion stock solution, the following ingredients in parts by weight are added to a vessel equipped with a stirring bar, and mixed for 15 minutes at 60-65° C.: (i) 180 parts sorbitan monolaurate (Span-20) aqueous solution (12 mg/mL); (ii) 30 parts Polysorbate 20 (Tween-20) aqueous solution (2 mg/mL); (iii) 400 parts cottonseed oil aqueous emulsion (26.6 mg/mL); (iv) 600 parts cyclopentadecanolide (CPE-215) aqueous emulsion (40 mg/mL); and (v) water to produce 1,500 grams total batch size. After mixing, the preparation is homogenized using a high speed mixture at 6500 RPM+ for 20-25 minutes to produce a fine emulsion. This solution is autoclaved to assure sterility. To produce a citric acid buffer stock solution, the following ingredients in parts by weight are added to a vessel equipped with a stirring bar, and mixed for 5 minutes at 60-65° C.: (i) 6200 parts water; (ii) 16 parts anhydrous citric acid aqueous solution (1.85 mg/mL); (iii) 76 parts sodium citrate, dihydrate aqueous solution (8.9 mg/mL); (iv) 104 parts Polysorbate 20 (Tween-20) aqueous solution (12 mg/mL); and (v) water to produce 8,500 grams total batch size. To produce a desmopressin stock solution, 0.111 part desmopressin acetate trihydrate is added to sufficient buffer stock solution to produce 100.0 mL of solution, and stirred until all the desmopressin is dissolved to produce a stock solution having a concentration of 100 μg desmopressin/mL. From this stock solution a 30 μg/mL solution was prepared by dilution. To produce the desmopressin nasal spray, aliquots of the 30 μg/mL solution were filtered to eliminate any bacterial contamination and diluted with an equal volume of emulsion stock solution to produce aseptic, preservative free dose forms comprising 15 μg/mL desmopressin, pH 5.5, containing 2% cyclopentadecanolide. These were bottled in sterile pump spray bottles fitted with a Pfeiffer APF pump sprayers that deliver 100 μL per metered spray (i.e., 1.5 μg desmopressin (i.e., 1500 ng desmopressin) per spray). The liquid contains no detectable microorganisms. Patients recorded the occurrence of nocturnal voids during the study period. Patients were designated to be a “Responder” if after receiving treatment there was a reduction in the average number of nocturnal voids during the treatment period.

[2] = human, in vivo; cited from earlier work
[3] = BPH patients also receiving alpha-adrenergic receptor antagonist and 5-alpha reductase inhibitor, 1.5 μg nasal spray, 12 weeks, n = 21
[4] = BPH patients on alpha-adrenergic receptor antagonist alone or together with 5-alpha reductase inhibitor, n = 21
[5] = BPH patients, no alpha-adrenergic receptor antagonist or 5-alpha reductase inhibitor, n = 42
[6] = male patients without BPH, desmopressin only, n = 34

Compound: NC(=O)CC[C@@H]1NC(=O)[C@H](Cc2ccccc2)NC(=O)[C@H](Cc2ccc(O)cc2)NC(=O)CCSSC[C@@H](C(=O)N2CCC[C@H]2C(=O)N[C@H](CCCN=C(N)N)C(=O)NCC(N)=O)NC(=O)[C@H](CC(N)=O)NC1=O [Desmopressin, 1-desamino-8-D-arginine vasopressin]
- Non-Responder Patients: Number of Patients that Received Desmopressin ([1]; BPH patients also receiving alpha-adrenergic receptor antagonist (one patient also on an anticholinergic agent), 1.5 μg nasal spray, 12 weeks, n = 21): 7**
- Non-Responder Patients: Number of Patients that Received Desmopressin [1, 3]: 2
- Responder Patients: Number of Patients that Received Desmopressin [1, 3]: 5
- Responder Patients: Number of Patients that Received Desmopressin ([1]; BPH patients also receiving alpha-adrenergic receptor antagonist, 1.5 μg nasal spray daily before bedtime, 12 weeks, n = 21 desmopressin group): 7
- Difference in Responder Response Rate Between Desmopressin-treated Patients & Those Receiving Placebo ([1]; BPH patients on alpha-adrenergic receptor antagonist alone or together with 5-alpha reductase inhibitor): 31%
- Difference in Responder Response Rate Between Desmopressin-treated Patients & Those Receiving Placebo ([1]; BPH patients on alpha-adrenergic receptor antagonist alone or together with 5-alpha reductase inhibitor, listed as desmopressin): 31%
- Non-Responder Patients: Total Number of Patients that Received Desmopressin [1, 4]: 9
- Percent Total Non-Responder Patients receiving desmopressin [1, 4]: 43%
- Percent Total Responder Patients (absolute response rate) receiving desmopressin [1, 4]: 57%
- Responder Patients: Total Number of Patients that Received Desmopressin [1, 4]: 12
- Percent Total Responder Patients (absolute response rate) receiving desmopressin ([1]; BPH patients on alpha-adrenergic receptor antagonist alone or together with 5-alpha reductase inhibitor, n = 21, listed as desmopressin): 57%
- Difference in Responder Response Rate Between Desmopressin-treated Patients & Those Receiving Placebo ([1]; BPH patients, no alpha-adrenergic receptor antagonist or 5-alpha reductase inhibitor): 14%
- Difference in Responder Response Rate Between Desmopressin-treated Patients & Those Receiving Placebo ([1]; BPH patients, no alpha-adrenergic receptor antagonist or 5-alpha reductase inhibitor, listed as desmopressin): 14%
- Non-Responder Patients: Number of Patients that Received Desmopressin [1, 5]: 24
- Percent Total Non-Responder Patients receiving desmopressin [1, 5]: 57%
- Percent Total Responder Patients (absolute response rate) receiving desmopressin [1, 5]: 43%
- Responder Patients: Number of Patients that Received Desmopressin [1, 5]: 18
- Percent Total Responder Patients (absolute response rate) receiving desmopressin ([1]; BPH patients, no alpha-adrenergic receptor antagonist or 5-alpha reductase inhibitor, n = 42, listed as desmopressin): 43%
- Reduction in occurrence of nocturnal voiding, combination compared with single treatments (in words) ([1]; desmopressin with alpha-adrenergic receptor antagonist alone or together with 5-alpha reductase inhibitor, versus desmopressin alone or the antagonist(s) without desmopressin): greater percentage of patients experiencing a reduction in the occurrence of nocturnal voiding
- Difference in Responder Response Rate Between Desmopressin-treated Patients & Those Receiving Placebo ([1]; male patients without BPH, desmopressin only): 18%
- Difference in Responder Response Rate Between Desmopressin-treated Patients & Those Receiving Placebo ([1]; male patients without BPH, desmopressin only, listed as desmopressin): 18%
- Non-Responder Patients: Number of Patients that Received Desmopressin [1, 6]: 16
- Percent Total Non-Responder Patients receiving desmopressin [1, 6]: 47%
- Percent Total Responder Patients (absolute response rate) receiving desmopressin [1, 6]: 53%
- Responder Patients: Number of Patients that Received Desmopressin [1, 6]: 18
- Percent Total Responder Patients (absolute response rate) receiving desmopressin ([1]; male patients without BPH, desmopressin only, n = 34, listed as desmopressin): 53%
- half-life (known clearance rate) [2]: 1.5 to 2.0 h
